Here are results for 18 compounds from patent US8957074B2 (Novartis AG, priority 2010, dated 2015).

Where two headings read alike, the source gives them in different places. Some results are limits rather than exact numbers.

One test addresses CDK4/cyclin D1 (Homo sapiens (Human), UniProt P11802). Put plainly: CDK4/cyclin D1 enzymatic activity assay (TR-FRET, phosphorylation of pRb at Ser780). In kind it is biochemical. The settings on record: 0.3 nM CDK4/cyclin D1, 150 nM biotin-pRb (773-924), 3 μM ATP, 60 min at 22° C.; read-out: Biochemical CDK4 enzyme IC50. A digest of the protocol: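 Phosphorylation at pRb Ser780, detected by TR-FRET, gave IC50s and kinetics. Enzyme: baculovirus/Sf21-expressed human CDK4/cyclin D1. ATP at 3 μM initiated the reaction; EDTA (pH 8.0) stopped it after 60 min at 22° C.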

Test [1] concerns phosphorylation of pRb at the Ser780 site in JeKo-1 mantle cell lymphoma cells. Put plainly: CDK4 cellular assay: ELISA of pRb phosphorylation at Ser780 in JeKo-1 cells. In kind it is cell-based. For orientation: An ELISA detects its analyte on a solid surface through an enzyme-linked reagent.
Another test addresses CDK1/cyclin B (Homo sapiens (Human), UniProt P06493). Put plainly: CDK1/cyclin B enzymatic activity assay (IMAP-FP). The settings on record: […] CDK1/cyclin B, 100 nM Tamra Histone-H1 peptide, 20 μM ATP, 120 min at room temperature; read-out: Biochemical CDK1 enzyme IC50. In kind it is biochemical. From the text:
CDK1/Cyclin B Enzymatic Activity Assay
A 384-well microtiter IMAP-FP™ (Molecular Devices Trade Mark Technology) endpoint assay was used for CDK1/cyclin B kinase activity measurements. The same assay was used for IC50 determination of small molecule inhibitors.

The mark [2] stands for this setting: Homo sapiens, JeKo-1, JeKo-1 cells, p-pRb % inhibition adjusted with total pRb levels, read-out: Normalized cellular ppRb inhibition IC50.
The mark [3] stands for this setting: Homo sapiens, JeKo-1, JeKo-1 cells, p-pRb Ser780 ELISA, non-normalized, read-out: Cellular ppRb inhibition IC50.
Where [4] appears, read: Homo sapiens, JeKo-1 cells, p-pRb % inhibition adjusted with total pRb levels, read-out: Normalized cellular ppRb inhibition IC50.
Setting [5] is: Homo sapiens, JeKo-1 cells, p-pRb Ser780 ELISA, non-normalized, read-out: Cellular ppRb inhibition IC50.
Setting [6] is: Homo sapiens, JeKo-1, read-out: Cellular ppRb inhibition IC50.
Where [7] appears, read: Homo sapiens, JeKo-1, read-out: Normalized cellular ppRb inhibition IC50.

CDK1/cyclin B, sequence (P06493 whole entry, species assumed): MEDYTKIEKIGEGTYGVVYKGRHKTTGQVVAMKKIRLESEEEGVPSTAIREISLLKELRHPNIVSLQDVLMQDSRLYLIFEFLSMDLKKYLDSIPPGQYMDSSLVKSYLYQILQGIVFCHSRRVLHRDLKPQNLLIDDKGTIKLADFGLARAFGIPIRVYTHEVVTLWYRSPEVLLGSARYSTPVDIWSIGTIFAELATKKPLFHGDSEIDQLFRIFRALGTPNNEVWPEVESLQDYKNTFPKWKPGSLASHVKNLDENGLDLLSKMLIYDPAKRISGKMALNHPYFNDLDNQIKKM
CDK1/cyclin B, sequence (P14635 whole entry partner, species assumed): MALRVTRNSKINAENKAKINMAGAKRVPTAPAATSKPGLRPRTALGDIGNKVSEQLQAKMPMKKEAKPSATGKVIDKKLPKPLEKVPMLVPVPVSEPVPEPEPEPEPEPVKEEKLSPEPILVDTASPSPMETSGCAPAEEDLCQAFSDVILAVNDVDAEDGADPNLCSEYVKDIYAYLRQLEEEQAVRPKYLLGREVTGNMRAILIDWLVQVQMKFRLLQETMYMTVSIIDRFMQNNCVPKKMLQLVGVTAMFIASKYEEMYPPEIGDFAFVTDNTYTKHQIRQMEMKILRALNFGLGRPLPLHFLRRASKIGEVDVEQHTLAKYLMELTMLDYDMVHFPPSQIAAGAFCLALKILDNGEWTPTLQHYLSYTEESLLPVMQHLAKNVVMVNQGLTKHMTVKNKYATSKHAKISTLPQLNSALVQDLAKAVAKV
CDK4/cyclin D1, sequence (P11802 whole entry): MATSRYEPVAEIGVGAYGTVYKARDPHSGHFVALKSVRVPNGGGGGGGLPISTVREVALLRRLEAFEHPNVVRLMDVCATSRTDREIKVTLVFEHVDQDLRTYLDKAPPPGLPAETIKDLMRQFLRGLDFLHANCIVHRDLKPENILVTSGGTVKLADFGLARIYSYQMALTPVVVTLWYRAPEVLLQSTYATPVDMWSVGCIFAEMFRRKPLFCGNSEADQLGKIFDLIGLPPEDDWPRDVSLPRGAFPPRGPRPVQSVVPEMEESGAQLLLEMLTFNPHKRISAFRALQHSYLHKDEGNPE
CDK4/cyclin D1, sequence (P24385 whole entry partner): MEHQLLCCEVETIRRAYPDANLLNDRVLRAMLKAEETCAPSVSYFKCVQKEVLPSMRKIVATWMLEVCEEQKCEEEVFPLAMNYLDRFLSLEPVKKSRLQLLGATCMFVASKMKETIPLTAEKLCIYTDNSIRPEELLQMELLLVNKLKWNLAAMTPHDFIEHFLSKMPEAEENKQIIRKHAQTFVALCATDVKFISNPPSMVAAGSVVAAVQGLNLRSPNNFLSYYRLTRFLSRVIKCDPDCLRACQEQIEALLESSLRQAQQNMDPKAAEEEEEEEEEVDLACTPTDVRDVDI

The IC50 is the concentration at which inhibition is half-maximal. In the case of `CN(C)C(=O)c1cc2cnc(Nc3ccc(C(=O)N4CC5CCC(C4)N5CCO)cn3)nc2n1C1CCCC1` [Example 28, 7-cyclopentyl-2-(5-(8-(2-hydroxyethyl)-3,8-diazabicyclo[3.2.1]octane-3-carbonyl)pyridin-2-ylamino)-N,N-dimethyl-7H-pyrrolo[2,3-d]pyrimidine-6-carboxamide], the IC50 on CDK4/cyclin D1 was 0.022 µM; in test [1] (setting [2]), 0.069 µM; in test [1] (setting [3]), 0.063 µM; at CDK1/cyclin B, above 15 µM.

Take `CN(C)C(=O)c1cc2cnc(Nc3ccc(C(=O)N4CC5CCC(C4)N5C(=O)CN)cn3)nc2n1C1CCCC1` [Example 60, 2-{5-[8-(2-Amino-acetyl)-3,8-diaza-bicyclo[3.2.1]octane-3-carbonyl]-pyridin-2-ylamino}-7-cyclopentyl-7H-pyrrolo[2,3-d]pyrimidine-6-carboxylic acid dimethylamide]: the IC50 was 0.019 µM at CDK4/cyclin D1, 0.047 µM in test [1] (setting [4]), 0.021 µM in test [1] (setting [5]) and above 15 µM at CDK1/cyclin B.

`CN(C)C(=O)c1cc2cnc(Nc3ccc(N4CCN5CCCC5C4=O)cn3)nc2n1C1CCCCC1` (stereo not drawn) [Example 98, 7-Cyclohexyl-2-[5-(1-oxo-hexahydro-pyrrolo[1,2-a]pyrazin-2-yl)-pyridin-2-ylamino]-7H-pyrrolo[2,3-d]pyrimidine-6-carboxylic acid dimethylamide]: the IC50 on CDK4/cyclin D1 is 0.016 to 0.098 µM; in test [1] (setting [6]), 0.136 to 0.266 µM; in test [1] (setting [7]) it was 0.291 to 0.887 µM; on CDK1/cyclin B it was above 15 µM.

For the compound `CN(C)C(=O)c1cc2cnc(Nc3ccc(N4C[C@@H]5CNC[C@@H]5CC4=O)cn3)nc2n1C1CCCC1` (stereo in doubt) [Example 92, 7-cyclopentyl-N,N-dimethyl-2-(5-(cis-6-oxotetrahydro-1H-pyrrolo[3,4-c]pyridin-5(6H,7H,7aH)-yl)pyridin-2-ylamino)-7H-pyrrolo[2,3-d]pyrimidine-6-carboxamide], the IC50 at CDK4/cyclin D1 was 0.005 to 0.007 µM; in test [1] (setting [6]) it was 0.005 to 0.02 µM; in test [1] (setting [7]), 0.019 to 0.038 µM; on CDK1/cyclin B, 25.1 µM.

For the compound `CN(C)C(=O)c1cc2cnc(Nc3ccc(N4CCN5CCC[C@@H]5C4=O)cn3)nc2n1C1CCCC1` [Example 147], the half-inhibitory concentration (IC50) at CDK4/cyclin D1 is 0.027 µM; in test [1] (setting [2]) it was 0.31 µM; in test [1] (setting [3]), 0.257 µM; at CDK1/cyclin B, above 15 µM.

Turning to `CN(C)C(=O)c1cc2cnc(Nc3ccc(N4C[C@@H]5CC[C@H](CC4=O)N5)cn3)nc2n1C1CCC1` [Example 135, 7-Cyclobutyl-2-[5-((1S,6R)-4-oxo-3,9-diaza-bicyclo[4.2.1]non-3-yl)-pyridin-2-ylamino]-7H-pyrrolo[2,3-d]pyrimidine-6-carboxylic acid dimethylamide], the IC50 on CDK4/cyclin D1 is 0.007 µM; in test [1] (setting [2]) it was 0.038 µM; in test [1] (setting [3]), 0.019 µM; at CDK1/cyclin B, above 15 µM.

`CN(C)C(=O)c1cc2cnc(Nc3ccc(N4CCN5CCC[C@H]5C4=O)cn3)nc2n1C1CCCC1` [Example 146]: the half-inhibitory concentration (IC50) at CDK4/cyclin D1 is 0.619 µM; in test [1] (setting [2]), 2.9 µM; in test [1] (setting [3]), 2.7 µM; at CDK1/cyclin B, above 15 µM.

In the case of `CN(C)C(=O)c1cc2cnc(Nc3ccc(C(=O)N4C[C@@H]5C[C@H]4CN5)cn3)nc2n1C1CCCC1` [Example 19, 7-Cyclopentyl-2-[5-((S,S)-2,5-diaza-bicyclo[2.2.1]heptane-2-carbonyl)-pyridin-2-ylamino]-7H-pyrrolo[2,3-d]pyrimidine-6-carboxylic acid dimethylamide], the IC50 at CDK4/cyclin D1 is 0.005 to 0.008 µM; in test [1] (setting [2]), 0.064 to 0.116 µM; in test [1] (setting [3]) it was 0.054 to 0.055 µM; at CDK1/cyclin B it was above 15 µM.

As to `CN(C)C(=O)c1cc2cnc(Nc3ccc(N4C[C@H]5CNC[C@H]5C4=O)cn3)nc2n1C1CCCC1` [Example 86, 7-cyclopentyl-N,N-dimethyl-2-(5-((3aR,6aS)-1-oxohexahydropyrrolo[3,4-c]pyrrol-2(1H)-yl)pyridin-2-ylamino)-7H-pyrrolo[2,3-d]pyrimidine-6-carboxamide], the IC50 was 0.005 to 0.006 µM on CDK4/cyclin D1, 0.013 to 0.014 µM in test [1] (setting [2]), 0.008 to 0.017 µM in test [1] (setting [3]) and 20.6 µM on CDK1/cyclin B.

As to `CC(C)[C@@H](N)C(=O)N1C2CCC1CN(C(=O)c1ccc(Nc3ncc4cc(C(=O)N(C)C)n(C5CCCC5)c4n3)nc1)C2` [Example 62, 2-{5-[8-((R)-2-Amino-3-methyl-butyryl)-3,8-diaza-bicyclo[3.2.1]octane-3-carbonyl]-pyridin-2-ylamino}-7-cyclopentyl-7H-pyrrolo[2,3-d]pyrimidine-6-carboxylic acid dimethylamide], the IC50 is 0.01 µM at CDK4/cyclin D1, 0.723 µM in test [1] (setting [4]), 0.291 µM in test [1] (setting [5]) and 39.9 µM at CDK1/cyclin B.

In the case of `CN(C)C(=O)c1cc2cnc(Nc3ccc(N4C[C@H]5CC[C@@H](CC4=O)N5C)cn3)nc2n1C1CCCC1` [Example 140, 7-cyclopentyl-N,N-dimethyl-2-(5-((1R,6S)-9-methyl-4-oxo-3,9-diazabicyclo[4.2.1]nonan-3-yl)pyridin-2-ylamino)-7H-pyrrolo[2,3-d]pyrimidine-6-carboxamide], the IC50 on CDK4/cyclin D1 was 0.005 to 0.006 µM; in test [1] (setting [2]), 0.011 to 0.018 µM; in test [1] (setting [3]), 0.005 to 0.009 µM; on CDK1/cyclin B, above 15 µM.

Consider `CN(C)C(=O)c1cc2cnc(Nc3ccc(N4CC5(CC4=O)CC4CCC(C5)N4)cn3)nc2n1C1CCCC1` (stereo not drawn) [Example 118, 7-cyclopentyl-N,N-dimethyl-2-(5-(5′-oxo-8-azaspiro[bicyclo[3.2.1]octane-3,3′-pyrrolidine]-1′-yl)pyridin-2-ylamino)-7H-pyrrolo[2,3-d]pyrimidine-6-carboxamide], for which the IC50 at CDK4/cyclin D1 is 0.005 to 0.014 µM; in test [1] (setting [4]) it was 0.047 to 0.153 µM; in test [1] (setting [5]), 0.034 to 0.147 µM; at CDK1/cyclin B, above 15 µM.

`CN(C)C(=O)c1cc2cnc(Nc3ccc(C(=O)N4CC5CNC(C5)C4)cn3)nc2n1C1CCCC1` (racemic) [Example 9, 7-Cyclopentyl-2-[5-(3,6-diaza-bicyclo[3.2.1]octane-3-carbonyl)-pyridin-2-ylamino]-7H-pyrrolo[2,3-d]pyrimidine-6-carboxylic acid dimethylamide]: the 50% inhibitory concentration (IC50) on CDK4/cyclin D1 was below 0.004 µM; in test [1] (setting [2]) it was 0.12 µM; in test [1] (setting [3]), 0.055 µM; on CDK1/cyclin B it was 7.1 µM.

In the case of `CN(C)C(=O)c1cc2cnc(Nc3ccc(C(=O)N4CCN5CCCC5C4)cn3)nc2n1C1CCCC1` (stereo not drawn) [Example 20, 7-Cyclopentyl-2-[5-(hexahydro-pyrrolo[1,2-a]pyrazine-2-carbonyl)-pyridin-2-ylamino]-7H-pyrrolo[2,3-d]pyrimidine-6-carboxylic acid dimethylamide], the 50% inhibitory concentration (IC50) is 0.064 µM at CDK4/cyclin D1, 0.452 µM in test [1] (setting [2]), 0.267 µM in test [1] (setting [3]) and above 15 µM at CDK1/cyclin B.

In the case of `CNC(=O)c1cc2cnc(Nc3ccc(C(=O)N4C[C@@H]5C[C@H]4CN5)cn3)nc2n1C1CCCC1` [Example 24, 7-Cyclopentyl-2-[5-((S,S)-2,5-diaza-bicyclo[2.2.1]heptane-2-carbonyl)-pyridin-2-ylamino]-7H-pyrrolo[2,3-d]pyrimidine-6-carboxylic acid methylamide], the IC50 on CDK4/cyclin D1 is 0.049 µM; in test [1] (JeKo-1 cells, p-pRb % inhibition adjusted with total pRb levels, read-out: Normalized cellular ppRb inhibition IC50) it was 0.272 µM; in test [1] (JeKo-1 cells, p-pRb Ser780 ELISA, non-normalized, read-out: Cellular ppRb inhibition IC50), 0.266 µM; on CDK1/cyclin B it was above 15 µM.

For the compound `CN(C)C(=O)c1cc2cnc(Nc3ccc(C(=O)N4CC5CCC(C4)C5O)cn3)nc2n1C1CCCC1` [Example 33, 7-cyclopentyl-2-(5-((1R,5S,8r)-8-hydroxy-3-azabicyclo[3.2.1]octane-3-carbonyl)pyridin-2-ylamino)-N,N-dimethyl-7H-pyrrolo[2,3-d]pyrimidine-6-carboxamide], the half-maximal inhibitory concentration (IC50) at CDK4/cyclin D1 is 0.094 to 0.144 µM; in test [1] (setting [4]), 0.43 to 1.3 µM; in test [1] (setting [5]) it was 0.377 to 0.919 µM; on CDK1/cyclin B, above 15 µM.

`CN(C)C(=O)c1cc2cnc(Nc3ccc(C(=O)N4CC5CNCC(C4)O5)cn3)nc2n1C1CCCC1` [Example 47, 7-Cyclopentyl-2-[5-(9-oxa-3,7-diaza-bicyclo[3.3.1]nonane-3-carbonyl)-pyridin-2-ylamino]-7H-pyrrolo[2,3-d]pyrimidine-6-carboxylic acid dimethylamide]: the IC50 was 0.03 µM at CDK4/cyclin D1, 0.352 µM in test [1] (setting [4]), 0.315 µM in test [1] (setting [5]) and above 15 µM at CDK1/cyclin B.

In the case of `CN(C)C(=O)c1cc2cnc(Nc3ccc(C(=O)N4CC5CCC(C4)N5)cn3)nc2n1-c1ccc(C(C)(C)C)cc1` [Example 53, 7-(4-tert-Butyl-phenyl)-2-[5-(3,8-diaza-bicyclo[3.2.1]octane-3-carbonyl)-pyridin-2-ylamino]-7H-pyrrolo[2,3-d]pyrimidine-6-carboxylic acid dimethylamide], the IC50 at CDK4/cyclin D1 was 0.003 µM; in test [1] (setting [2]), 0.007 to 0.027 µM; in test [1] (setting [3]), 0.007 to 0.014 µM; at CDK1/cyclin B it was above 15 µM.
